Assays:
[1] = test system: CD1 mice sensitized to the hapten DNP; assay: Mouse acute cutaneous anaphylaxis model (Assay 5); format: in vivo; details: for Assay 5: Mouse acute cutaneous anaphylaxis model, desired activity: topical on ear, DNFB challenge, MPO activity
J774.1a macrophage cells = assay: Macrophage TNF-α production (Assay 2); format: cell-based; details: 10 μg/mL test compound, 100 ng/mL LPS, supernatants after 2 hr and 5 hr; note: key: a ‘+’ indicates a positive result for desired activity; a ‘−’ indicates a negative result for desired activity
In short: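 J774.1a macrophages pretreated 40 min with 10 μg/mL compound, then LPS (100 ng/mL for TNF-α); TNF-α by ELISA in supernatants at 2 and 5 h, NO by Griess at 24 h. Mast cells IgE-loaded (anti-DNP), compound 30 min, DNP-HSA challenge; calcium flux by fura-2 spectrofluorometry, signalling by immunoblot.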

**Q.** With Cc1cc(O)c(O)c2c1[C@]1(C)CCC3C(C)(C)CCC[C@]3(C)[C@H]1C2 (some centres unmarked) [AQX-016A] as the compound, how does the “Assay 5: Mouse acute cutaneous anaphylaxis model, desired activity” value [1] read?
**A.** The value was “+”.

**Q.** And the “Assay 2: Macrophage TNF-α production, desired activity” value (J774.1a macrophage cells)?
**A.** Its value is “+”.

**Q.** Which “Assay 5: Mouse acute cutaneous anaphylaxis model, desired activity” value [1] does the source give for Cc1cc(O)cc2c1[C@]1(C)CCC3C(C)(C)CCC[C@]3(C)[C@H]1C2 (some centres unmarked) [Compound 100] here?
**A.** Its value is “+”.

**Q.** And the “allergen (DNFB)-induced inflammation of the ear” value ([1]; topically applied, vs vehicle control-treated ear)?
**A.** Its value is “dramatically inhibited allergen-induced inflammation”.

**Q.** What about the “Assay 2: Macrophage TNF-α production, desired activity” value (J774.1a macrophage cells) of the same compound?
**A.** The value was “+”.

Source: patent publication US20100323990A1, “SHIP 1 MODULATOR PRODRUGS” (THE UNIVERSITY OF BRITISH COLUMBIA, priority 2006, published 2010)
